{
  "source": "ChEMBL document CHEMBL4422651",
  "about": "“Revisiting tubercidin against kinetoplastid parasites: Aromatic substitutions at position 7 improve activity and reduce toxicity” (Eur J Med Chem, 2019)",
  "key": {"Trypanosoma cruzi": {"tested_on": "Trypanosoma cruzi", "assay": "Antitrypanosomal activity against nifurtimox-sensitive Trypanosoma cruzi Tulahuen CL2 harboring beta-galactosidase infected in human MRC5 cells after 7 days by resazurin dye-based assay", "assay_type": "functional, organism-based"}, "[1]": {"assay": "Selectivity index, ratio of EC50 for human MRC5 cells to EC50 for Trypanosoma brucei brucei Squib 427", "assay_type": "toxicity", "conditions": "read-out: Ratio EC50"}, "[2]": {"tested_on": "Trypanosoma brucei brucei", "assay": "Antitrypanosomal activity against Trypanosoma brucei brucei Squib 427 after 48 hrs by alamar blue assay", "assay_type": "functional, organism-based", "conditions": "Squib 427, 48 h"}, "MRC5": {"tested_on": "MRC5", "assay": "Cytotoxicity against human MRC5 cells assessed as reduction in cell viability after 3 days by resazurin dye-based assay", "conditions": "MRC5, 72 h"}, "[3]": {"assay": "Selectivity index, ratio of EC50 for human MRC5 cells to EC50 for Trypanosoma brucei rhodesiense STIB-900", "assay_type": "toxicity", "conditions": "read-out: Ratio EC50"}, "[4]": {"tested_on": "Trypanosoma brucei rhodesiense", "assay": "Antitrypanosomal activity against Trypanosoma brucei rhodesiense STIB-900 after 48 hrs by alamar blue assay", "assay_type": "functional, organism-based", "conditions": "STIB-900, 48 h"}},
  "note": "The source made the active and inactive calls. The calls are words filed in the database; no cut-off is given here.",
  "data": [
    {"smiles": "Nc1ncnc2c1c(-c1cc(Cl)cc(Cl)c1)cn2[C@@H]1O[C@H](CO)[C@@H](O)[C@H]1O", "values": [
      {"measurement": "Activity", "setting": "Trypanosoma cruzi", "value": "inactive"},
      {"measurement": "selectivity ratio", "setting": "[1]", "value": "> 7.8"},
      {"measurement": "EC50", "setting": "[2]", "value": 8.17, "unit": "µM"},
      {"measurement": "EC50", "setting": "MRC5", "value": "> 64", "unit": "µM"},
      {"measurement": "selectivity ratio", "setting": "[3]", "value": "> 17"},
      {"measurement": "EC50", "setting": "[4]", "value": 3.66, "unit": "µM"}
    ]},
    {"smiles": "Nc1ncnc2c1c(-c1ccc(Cl)cn1)cn2[C@@H]1O[C@H](CO)[C@@H](O)[C@H]1O", "values": [
      {"measurement": "Activity", "setting": "Trypanosoma cruzi", "value": "inactive"},
      {"measurement": "selectivity ratio", "setting": "[1]", "value": "> 7.1"},
      {"measurement": "EC50", "setting": "[2]", "value": 8.97, "unit": "µM"},
      {"measurement": "EC50", "setting": "MRC5", "value": "> 64", "unit": "µM"},
      {"measurement": "selectivity ratio", "setting": "[3]", "value": "> 13"},
      {"measurement": "EC50", "setting": "[4]", "value": 4.6, "unit": "µM"}
    ]},
    {"smiles": "Cc1ccc(-c2cn([C@@H]3O[C@H](CO)[C@@H](O)[C@H]3O)c3ncnc(N)c23)cc1", "values": [
      {"measurement": "Activity", "setting": "Trypanosoma cruzi", "value": "inactive"},
      {"measurement": "selectivity ratio", "setting": "[1]", "value": 0.9},
      {"measurement": "EC50", "setting": "[2]", "value": 29.1, "unit": "µM"},
      {"measurement": "EC50", "setting": "MRC5", "value": 26.2, "unit": "µM"}
    ]},
    {"smiles": "Nc1ncnc2c1c(-c1ccc(F)cn1)cn2[C@@H]1O[C@H](CO)[C@@H](O)[C@H]1O", "values": [
      {"measurement": "Activity", "setting": "Trypanosoma cruzi", "value": "inactive"},
      {"measurement": "selectivity ratio", "setting": "[1]", "value": "> 13"},
      {"measurement": "EC50", "setting": "[2]", "value": 4.77, "unit": "µM"},
      {"measurement": "EC50", "setting": "MRC5", "value": "> 64", "unit": "µM"},
      {"measurement": "selectivity ratio", "setting": "[3]", "value": "> 38"},
      {"measurement": "EC50", "setting": "[4]", "value": 1.69, "unit": "µM"}
    ]},
    {"smiles": "Cn1cncc1-c1cn([C@@H]2O[C@H](CO)[C@@H](O)[C@H]2O)c2ncnc(N)c12", "values": [
      {"measurement": "Activity", "setting": "Trypanosoma cruzi", "value": "inactive"},
      {"measurement": "selectivity ratio", "setting": "[1]", "value": "> 1.9"},
      {"measurement": "EC50", "setting": "[2]", "value": 33.3, "unit": "µM"},
      {"measurement": "EC50", "setting": "MRC5", "value": "> 64", "unit": "µM"}
    ]},
    {"smiles": "Nc1ncnc2c1c(-c1cc3ccccc3cn1)cn2[C@@H]1O[C@H](CO)[C@@H](O)[C@H]1O", "values": [
      {"measurement": "Activity", "setting": "Trypanosoma cruzi", "value": "inactive"},
      {"measurement": "selectivity ratio", "setting": "[1]", "value": "> 4.4"},
      {"measurement": "EC50", "setting": "[2]", "value": 14.7, "unit": "µM"},
      {"measurement": "EC50", "setting": "MRC5", "value": "> 64", "unit": "µM"},
      {"measurement": "selectivity ratio", "setting": "[3]", "value": "> 10"},
      {"measurement": "EC50", "setting": "[4]", "value": 6.16, "unit": "µM"}
    ]},
    {"smiles": "Nc1ncnc2c1c(-c1ccccc1)cn2[C@@H]1O[C@H](CO)[C@@H](O)[C@H]1O", "values": [
      {"measurement": "Activity", "setting": "Trypanosoma cruzi", "value": "inactive"},
      {"measurement": "selectivity ratio", "setting": "[1]", "value": 1.7},
      {"measurement": "EC50", "setting": "[2]", "value": 32.3, "unit": "µM"},
      {"measurement": "EC50", "setting": "MRC5", "value": 56.2, "unit": "µM"},
      {"measurement": "selectivity ratio", "setting": "[3]", "value": 14},
      {"measurement": "EC50", "setting": "[4]", "value": 4.1, "unit": "µM"}
    ]},
    {"smiles": "Cn1cnc(-c2cn([C@@H]3O[C@H](CO)[C@@H](O)[C@H]3O)c3ncnc(N)c23)c1", "values": [
      {"measurement": "Activity", "setting": "Trypanosoma cruzi", "value": "inactive"},
      {"measurement": "selectivity ratio", "setting": "[1]", "value": 4.9},
      {"measurement": "EC50", "setting": "[2]", "value": 4.76, "unit": "µM"},
      {"measurement": "EC50", "setting": "MRC5", "value": 23.4, "unit": "µM"}
    ]},
    {"smiles": "Nc1ncnc2c1c(-c1cncnc1)cn2[C@@H]1O[C@H](CO)[C@@H](O)[C@H]1O", "values": [
      {"measurement": "Activity", "setting": "Trypanosoma cruzi", "value": "inactive"},
      {"measurement": "selectivity ratio", "setting": "[1]", "value": "> 1.2"},
      {"measurement": "EC50", "setting": "[2]", "value": 52.4, "unit": "µM"},
      {"measurement": "EC50", "setting": "MRC5", "value": "> 64", "unit": "µM"}
    ]},
    {"smiles": "Cc1ccc(C(=O)Nc2ccc(S(=O)(=O)O)c3cc(S(=O)(=O)O)cc(S(=O)(=O)O)c23)cc1NC(=O)c1cccc(NC(=O)Nc2cccc(C(=O)Nc3cc(C(=O)Nc4ccc(S(=O)(=O)O)c5cc(S(=O)(=O)O)cc(S(=O)(=O)O)c45)ccc3C)c2)c1", "note": "[SURAMIN]", "values": [
      {"measurement": "selectivity ratio", "setting": "[1]", "value": "> 1280"},
      {"measurement": "EC50", "setting": "[2]", "value": 0.05, "unit": "µM"},
      {"measurement": "EC50", "setting": "MRC5", "value": "> 64", "unit": "µM"},
      {"measurement": "selectivity ratio", "setting": "[3]", "value": "> 1600"},
      {"measurement": "EC50", "setting": "[4]", "value": 0.04, "unit": "µM"}
    ]},
    {"smiles": "Nc1ncnc2c1c(-c1cnccn1)cn2[C@@H]1O[C@H](CO)[C@@H](O)[C@H]1O", "values": [
      {"measurement": "Activity", "setting": "Trypanosoma cruzi", "value": "inactive"},
      {"measurement": "selectivity ratio", "setting": "[1]", "value": 0.28},
      {"measurement": "EC50", "setting": "[2]", "value": 1.95, "unit": "µM"},
      {"measurement": "EC50", "setting": "MRC5", "value": 0.55, "unit": "µM"}
    ]},
    {"smiles": "Nc1ncnc2c1c(-c1cccc(Cl)n1)cn2[C@@H]1O[C@H](CO)[C@@H](O)[C@H]1O", "values": [
      {"measurement": "Activity", "setting": "Trypanosoma cruzi", "value": "inactive"},
      {"measurement": "selectivity ratio", "setting": "[1]", "value": "> 37"},
      {"measurement": "EC50", "setting": "[2]", "value": 1.75, "unit": "µM"},
      {"measurement": "EC50", "setting": "MRC5", "value": "> 64", "unit": "µM"},
      {"measurement": "selectivity ratio", "setting": "[3]", "value": "> 103"},
      {"measurement": "EC50", "setting": "[4]", "value": 0.62, "unit": "µM"}
    ]},
    {"smiles": "Nc1ncnc2c1c(-c1ccccc1F)cn2[C@@H]1O[C@H](CO)[C@@H](O)[C@H]1O", "values": [
      {"measurement": "Activity", "setting": "Trypanosoma cruzi", "value": "inactive"},
      {"measurement": "selectivity ratio", "setting": "[1]", "value": 1.8},
      {"measurement": "EC50", "setting": "[2]", "value": 33.3, "unit": "µM"},
      {"measurement": "EC50", "setting": "MRC5", "value": 61, "unit": "µM"},
      {"measurement": "selectivity ratio", "setting": "[3]", "value": 2.3},
      {"measurement": "EC50", "setting": "[4]", "value": 26.3, "unit": "µM"}
    ]},
    {"smiles": "COc1ccc(-c2cn([C@@H]3O[C@H](CO)[C@@H](O)[C@H]3O)c3ncnc(N)c23)cc1", "values": [
      {"measurement": "Activity", "setting": "Trypanosoma cruzi", "value": "inactive"},
      {"measurement": "selectivity ratio", "setting": "[1]", "value": 0.67},
      {"measurement": "EC50", "setting": "[2]", "value": 41.6, "unit": "µM"},
      {"measurement": "EC50", "setting": "MRC5", "value": 28, "unit": "µM"}
    ]},
    {"smiles": "Nc1ncnc2c1c(-c1ncccn1)cn2[C@@H]1O[C@H](CO)[C@@H](O)[C@H]1O", "values": [
      {"measurement": "Activity", "setting": "Trypanosoma cruzi", "value": "inactive"},
      {"measurement": "selectivity ratio", "setting": "[1]", "value": 6.3},
      {"measurement": "EC50", "setting": "[2]", "value": 2.26, "unit": "µM"},
      {"measurement": "EC50", "setting": "MRC5", "value": 14.3, "unit": "µM"}
    ]},
    {"smiles": "Nc1ncnc2c1c(-c1nccc3ccccc13)cn2[C@@H]1O[C@H](CO)[C@@H](O)[C@H]1O", "values": [
      {"measurement": "Activity", "setting": "Trypanosoma cruzi", "value": "inactive"},
      {"measurement": "EC50", "setting": "[2]", "value": "> 64", "unit": "µM"},
      {"measurement": "EC50", "setting": "MRC5", "value": "> 64", "unit": "µM"},
      {"measurement": "selectivity ratio", "setting": "[3]", "value": "> 1.2"},
      {"measurement": "EC50", "setting": "[4]", "value": 55.6, "unit": "µM"}
    ]}
  ]
}
